The record followed here is patent publication US20190201508A1, “METHODS FOR TREATING CANCERS USING ACE INHIBITORS, ARB, OR CELECOXIB AND OLMESARTAN” (Marina Biotech, Inc., priority 2016, published 2019).

One assay has as its system SUM149-RR tumor cells. Kind of assay: Orthotopic human inflammatory breast cancer model SUM149-RR, lymph node metastatic burden (luciferase). The settings on record: for change in ILN burden versus control (in words): single agents or combination with CEL. In kind it is in vivo, CB-17 SCID mice. The protocol: (§1) Luciferase-tagged SUM149 and MDA-MB-435 cell lines were used to determine the incidence and the burden of locoregional and systemic spread. Mice were monitored twice a week for 9-16 weeks for percent weight loss, tumor volume and survival outcome. Metastatic tumor burden and incidence was measured as luciferase expression in lymph nodes and lungs and normalized to total protein.
(§2) Tumors were monitored 2-3 times per week with digital calipers. Once tumors reached 1500 mm3, the mice were sacrificed. Tumors from MDA-MB-435-Luc and SUM149-RR were snap frozen and ipsilateral lymph nodes and lungs were collected for assessing metastatic burden and incidence by measuring luciferase expression per organ and normalized to total protein. Difference in incidence or burden as compared to the control was assessed by a Fisher exact test, or a Mann-Whitney test.
as §1, with “Methods: Three anti-hypertensive drugs (Lisinopril [LIS], Olmesartan medoxomil [OLM] and Hydrochlorothiazide [HCTZ]) were evaluated for tumor growth suppression and metastatic spread in xenograft models of inflammatory breast cancer/SUM149, melanoma/MDA-MB-435 and glioblastoma/U87. Luciferase-tagged” for “Luciferase-tagged”, “spread. […]” for “spread.”
Seven days post implantation, mice in subgroups of 5 received either saline, LIS (15 mg/kg), OLM (30 mg/kg) or HCTZ (10 mg/kg) for 5 days/wk for 3 weeks.
(§3) Tumors were monitored 2-3 times per week with digital calipers. Once tumors reached 1500 mm3, the mice were sacrificed. The tumor was snap frozen and ipsilateral lymph nodes and lungs were collected for assessing metastatic burden and incidence by measuring luciferase expression per organ and normalized to total protein. Difference in incidence or burden as compared to the control was assessed by a Fisher exact test, or a Mann-Whitney test.

Assay [1] relates to inflammatory breast cancer/SUM149, melanoma/MDA-MB-435 and glioblastoma/U87 xenografts. Kind of assay: Tumor growth suppression across xenograft models (pooled statements). Type of assay: in vivo, mice. The settings on record: for effect on tumor growth (in words): single agents, cancer models studied (breast cancer, melanoma, glioblastoma). The method, then:
as §1
Subcutaneous melanoma xenograft tumor model: MDA-MB-435-Luc: Female SCID mice were implanted with 4×10^6 MDA-MB-435-Luciferase tumor cells in 50% Matrigel subcutaneously on the left flank.
Orthotopic human inflammatory breast cancer model: SUM149-RR: Female CB-17 SCID mice were implanted in the mammary fat pad with 4×10^6 SUM149-RR tumor cells in 50% Matrigel.
T/C (%) was calculated as the mean RTV (relative tumor volume) of treated tumors (T) divided by the mean RTV of control tumors (C)×100%.
as §2
(§4) Methods: Three anti-hypertensive drugs (Lisinopril [LIS], Olmesartan medoxomil [OLM] and Hydrochlorothiazide [HCTZ]) were evaluated for tumor growth suppression and metastatic spread in xenograft models of inflammatory breast cancer/SUM149, melanoma/MDA-MB-435 and glioblastoma/U87. Luciferase-tagged SUM149 and MDA-MB-435 cell lines were used to determine the incidence and the burden of locoregional and systemic spread. CB-17 SCID mice were implanted either subcutaneously (MDA-MB-435 and U87) or orthotopically (SUM149) with 4×10^6 cancer cells and oral administration of test agents for 3 weeks was initiated on post-tumor inoculation Day 7. Mice were monitored twice a week for 9-16 weeks for percent weight loss, tumor volume and survival outcome. Metastatic tumor burden and incidence was measured as luciferase expression in lymph nodes and lungs and normalized to total protein.
Subcutaneous human melanoma xenograft tumor model: MDA-MB-435-Luciferase: Female SCID mice were implanted with 4×10^6 MDAMB-435-Luc tumor cells in 50% Matrigel subcutaneously on the left flank. Seven days post implantation, tumor-bearing mice in subgroups received either saline, Lisinopril (LIS, 15 mg/kg), Olmesartan (OLM, 30 mg/kg); or Hydrochlorothiazide (HCTZ, 10 mg/kg) for 5 consecutive days for 3 weeks.
Female CB-17 SCID mice were implanted in the mammary fat pad with 4×10^6 SUM149-RR tumor cells in 50% Matrigel. Seven days post implantation, mice in subgroups of 5 received either saline, LIS (15 mg/kg), OLM (30 mg/kg) or HCTZ (10 mg/kg) for 5 days/wk for 3 weeks.
Subcutaneous human U87-MG glioblastoma model: 3×10^6 U87 glioblastoma cells were injected into the right flank of Balb/c nude mice and tumor-bearing (50-250 mm3) mice were randomized into 10 groups (10 mice/group) and the antitumor activities of OLM were evaluated following daily PO administration (30 or 60 mg/kg, QD×21). T/C (%) was calculated as the mean RTV (relative tumor volume) of treated tumors (T) divided by the mean RTV of control tumors (C)×100%.
as §3

A further assay concerns tumor blood vessels (BV). Kind of assay: Tumor blood vessel density and normalization (FIG. 6A/6B). In kind it is in vivo. Particulars: control tumors had low BV density and necrosis.
The next assay relates to MDA-MB-435 xenograft. Nature of the assay: MDA-MB-435 xenograft tumor growth and tumor burden. Particulars: MDA-MB-435 model; LIS 15 mg/kg, 5 consecutive days for 3 weeks. Type of assay: in vivo, CB-17 SCID mice. The method, then:
as §2
as §4, with “CB-17 SCID mice were implanted either subcutaneously (MDA-MB-435 and U87) or orthotopically (SUM149) with 4×10^6 cancer cells and oral administration of test agents for 3 weeks was initiated on post-tumor inoculation Day 7.” left out
Tumors were monitored 2-3 times per week with digital calipers. Once tumors reached 1500 mm3, the mice were sacrificed.

In the case of `NS(=O)(=O)c1cc2c(cc1Cl)NCNS2(=O)=O` [HCTZ, Hydrochlorothiazide], the “change in ILN burden versus control (in words)” value in the assay with SUM149-RR tumor cells is “not”. Besides, the “effect on tumor growth (in words)” value is given as “no effect on tumor growth” in assay [1] and “did not show the same effect” in assay [1] (listed as HTCZ).

As for `NCCCC[C@H](N[C@@H](CCc1ccccc1)C(=O)O)C(=O)N1CCC[C@H]1C(=O)O` [LIS, Lisinopril], the “effect on tumor blood vessels (BV)” value in the assay on tumor blood vessels (BV) (FIG. 6A, single agents) is “no major effect”; with tumor blood vessels (BV) (FIG. 6B, in combination) it was “no major effect”. In addition, the “effect on tumor growth (in words)” value in assay [1] is “significant inhibition of tumor growth”; in assay [1] (listed as Lisinopril) it was “showed tumor growth suppression”. The “reduction in tumor burden” value in the assay with MDA-MB-435 xenograft was “significant reduction in tumor burden”.

On to `CCCc1nc(C(C)(C)O)c(C(=O)OCc2oc(=O)oc2C)n1Cc1ccc(-c2ccccc2-c2nn[nH]n2)cc1` [OLM, (5-methyl-2-oxo-2H-1,3-dioxol-4-yl)methyl 4-(2-hydroxypropan-2-yl)-2-propyl-1-({4-[2-(2H-1,2,3,4-tetrazol-5-yl)phenyl]phenyl}methyl)-1H-imidazole-5-carboxylate], for which, in the assay with SUM149-RR tumor cells (OLM 30 mg/kg alone), the “fold decrease in ILN tumor burden versus saline control” value came out at 7.1 fold. The “average tumor burden in the ipsilateral lymph nodes (ILN)” value in the assay with SUM149-RR tumor cells (OLM 30 mg/kg, saline control 17.6±8.6, p-value=0.01 by Mann-Whitney test) is 2.4±0.6 ×104 RLU per mg of protein. The lymph node burden with SUM149-RR tumor cells (OLM versus control 17.6±8.6, P=0.01) was 2.4±0.6 ×10^4 RLU/mg of protein. Besides, the “change in ILN burden versus control (in words)” value in the assay on SUM149-RR tumor cells is recorded as “statistically significant decrease in ILN burden”. Besides, the “effect on tumor blood vessels (BV)” value in the assay on tumor blood vessels (BV) (FIG. 6A, single agents) is “facilitated the normalization and stabilization of tumor BVs”; with tumor blood vessels (BV) (FIG. 6B, in combination), “facilitated the normalization and stabilization of tumor BVs”. In addition, the “inhibition of tumor growth” value in assay [1] (range over all three xenograft models (SUM149, MDA-MB-435, U87)) is 50-61%. Moreover, the figures for the “effect on tumor growth (in words)” value in assay [1] and in assay [1] (listed as olmesartan) were “significant inhibition of tumor growth” and “showed tumor growth suppression”, respectively.
